Test results taken from BindingDB's records for doi:10.1016/j.bmc.2006.06.050 (Enscmu, 2006).
Where a name gives a salt, the structure may show the parent alone.

What was measured:
Experiment in all cases: Enzyme Inhibition Assay
Aminopeptidase N = molecular target: T1, Aminopeptidase N (Sus scrofa, UniProt P15145)
T1 sequence (P15145 whole entry): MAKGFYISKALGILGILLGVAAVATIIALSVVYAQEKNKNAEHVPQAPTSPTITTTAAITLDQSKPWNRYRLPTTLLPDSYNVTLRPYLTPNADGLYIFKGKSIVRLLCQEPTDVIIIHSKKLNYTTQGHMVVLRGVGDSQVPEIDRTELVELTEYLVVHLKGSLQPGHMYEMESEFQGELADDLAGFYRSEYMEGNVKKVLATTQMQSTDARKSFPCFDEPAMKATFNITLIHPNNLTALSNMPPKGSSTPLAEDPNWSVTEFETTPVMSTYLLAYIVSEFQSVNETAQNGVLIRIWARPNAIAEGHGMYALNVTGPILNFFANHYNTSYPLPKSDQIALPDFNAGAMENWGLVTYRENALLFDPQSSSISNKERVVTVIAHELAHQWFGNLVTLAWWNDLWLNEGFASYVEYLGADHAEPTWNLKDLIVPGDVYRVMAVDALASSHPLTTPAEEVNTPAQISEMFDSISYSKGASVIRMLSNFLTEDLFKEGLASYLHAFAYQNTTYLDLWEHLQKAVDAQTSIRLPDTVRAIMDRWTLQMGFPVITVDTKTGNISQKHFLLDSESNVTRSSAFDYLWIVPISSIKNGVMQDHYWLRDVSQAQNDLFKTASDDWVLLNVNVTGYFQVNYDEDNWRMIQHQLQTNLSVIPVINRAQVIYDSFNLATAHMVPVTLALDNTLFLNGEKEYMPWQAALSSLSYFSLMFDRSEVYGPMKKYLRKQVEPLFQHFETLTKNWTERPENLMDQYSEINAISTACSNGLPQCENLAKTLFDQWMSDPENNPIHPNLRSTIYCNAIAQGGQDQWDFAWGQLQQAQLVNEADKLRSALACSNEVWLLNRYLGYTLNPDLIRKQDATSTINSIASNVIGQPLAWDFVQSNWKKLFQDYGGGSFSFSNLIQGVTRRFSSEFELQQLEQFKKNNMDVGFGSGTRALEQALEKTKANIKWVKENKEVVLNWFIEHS

[1] = molecular target: Bacterial leucyl aminopeptidase (Vibrio proteolyticus, UniProt Q01693)
Sequence of Bacterial leucyl aminopeptidase (Q01693 whole entry): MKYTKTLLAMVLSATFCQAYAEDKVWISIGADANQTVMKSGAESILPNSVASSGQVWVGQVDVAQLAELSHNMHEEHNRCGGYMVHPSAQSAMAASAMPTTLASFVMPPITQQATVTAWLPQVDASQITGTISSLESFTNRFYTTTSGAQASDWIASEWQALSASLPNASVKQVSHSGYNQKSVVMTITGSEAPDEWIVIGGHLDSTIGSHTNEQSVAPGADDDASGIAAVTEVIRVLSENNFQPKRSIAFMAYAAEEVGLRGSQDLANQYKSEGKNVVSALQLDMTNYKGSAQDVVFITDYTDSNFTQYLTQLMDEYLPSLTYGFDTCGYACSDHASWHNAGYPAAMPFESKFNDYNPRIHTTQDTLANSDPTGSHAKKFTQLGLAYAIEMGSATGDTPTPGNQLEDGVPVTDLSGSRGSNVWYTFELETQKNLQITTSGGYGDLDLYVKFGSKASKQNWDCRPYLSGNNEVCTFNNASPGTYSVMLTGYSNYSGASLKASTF

[2] = molecular target: T2, Leukotriene A-4 hydrolase (Homo sapiens, UniProt P09960)
T2 sequence (P09960 whole entry): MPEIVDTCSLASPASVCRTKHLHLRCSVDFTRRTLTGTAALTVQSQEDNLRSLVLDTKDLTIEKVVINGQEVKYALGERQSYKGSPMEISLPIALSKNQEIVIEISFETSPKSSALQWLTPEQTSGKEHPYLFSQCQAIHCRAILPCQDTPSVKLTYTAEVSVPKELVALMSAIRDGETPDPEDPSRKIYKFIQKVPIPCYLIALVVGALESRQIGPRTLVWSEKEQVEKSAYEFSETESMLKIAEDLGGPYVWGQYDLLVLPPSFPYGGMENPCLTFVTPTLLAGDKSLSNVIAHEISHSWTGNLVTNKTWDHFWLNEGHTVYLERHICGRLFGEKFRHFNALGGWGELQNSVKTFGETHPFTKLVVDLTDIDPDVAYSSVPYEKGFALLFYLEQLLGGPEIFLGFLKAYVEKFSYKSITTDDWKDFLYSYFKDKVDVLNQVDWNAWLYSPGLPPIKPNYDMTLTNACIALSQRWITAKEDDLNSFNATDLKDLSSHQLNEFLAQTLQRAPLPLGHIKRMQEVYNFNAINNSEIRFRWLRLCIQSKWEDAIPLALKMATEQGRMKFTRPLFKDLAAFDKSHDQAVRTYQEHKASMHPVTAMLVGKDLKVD

CO/N=C1/Cc2ccccc2CC1N (stereo not given) [(3Z)-3-(methoxyimino)-1,2,3,4-tetrahydronaphthalen-2-amine hydrochloride]
Ki (Aminopeptidase N): 130 µM | IC50 ([1]; pH 8, 30 °C): 800 µM | IC50 [2]: > 1000 µM

NC1Cc2ccccc2CC1C(=O)NO (stereo not given) [3-amino-N-hydroxy-1,2,3,4-tetrahydronaphthalene-2-carboxamide hydrochloride]
Ki (Aminopeptidase N): 4 µM | Ki [1]: 4 µM | IC50 [2]: > 1000 µM

NN1Cc2ccccc2CC1=O [2-amino-1,2,3,4-tetrahydroisoquinolin-3-one]
IC50 (Aminopeptidase N): > 1000 µM | IC50 [1]: 740 µM | IC50 [2]: > 1000 µM

O=C1Cc2ccccc2CS1 [3,4-dihydro-1H-2-benzothiopyran-3-one]
IC50 (Aminopeptidase N): > 1000 µM | Ki [1]: 4 µM | IC50 [2]: > 1000 µM

NC1Cc2ccccc2C/C1=N/OCCc1ccccc1 (stereo not given) [(3Z)-3-[(2-phenylethoxy)imino]-1,2,3,4-tetrahydronaphthalen-2-amine hydrochloride]
Ki (Aminopeptidase N): 260 µM | IC50 ([1]; pH 8, 30 °C): 170 µM | IC50 [2]: 500 µM

NC1Cc2ccccc2CC1=O (stereo not given) [3-amino-1,2,3,4-tetrahydronaphthalen-2-one hydrochloride]
IC50 ([1]; pH 8, 30 °C): 130 µM | IC50 [2]: > 1000 µM

NC1CCc2ccccc2C1 [(2S)-1,2,3,4-Tetrahydro-naphthalen-2-ylamine]
IC50 (Aminopeptidase N): > 1000 µM | IC50 ([1]; pH 8, 30 °C): > 1000 µM | IC50 [2]: > 1000 µM

O=C1Cc2ccccc2CO1 [3,4-dihydro-1H-2-benzopyran-3-one]
IC50 (Aminopeptidase N): > 1000 µM | IC50 [1]: > 1000 µM | IC50 [2]: > 1000 µM

NC1Cc2ccccc2NC1=O (stereo not given) [3-amino-1,2,3,4-tetrahydroquinolin-2-one hydrochloride]
IC50 (Aminopeptidase N): > 1000 µM | Ki [1]: 80 µM | IC50 [2]: > 1000 µM

CC(=O)C1Cc2ccccc2CC1N (stereo not given) [1-(3-amino-1,2,3,4-tetrahydronaphthalen-2-yl)ethan-1-one hydrochloride]
IC50 (Aminopeptidase N): > 1000 µM | IC50 ([1]; pH 8, 30 °C): 500 µM | IC50 [2]: 750 µM

O=C1Cc2ccccc2CN1O [2-hydroxy-1,2,3,4-tetrahydroisoquinolin-3-one]
IC50 (Aminopeptidase N): > 1000 µM | Ki [1]: 4 µM | IC50 [2]: > 1000 µM

NC1Cc2ccccc2C/C1=N/OCCCCCc1ccccc1 (stereo not given) [(3Z)-3-{[(5-phenylpentyl)oxy]imino}-1,2,3,4-tetrahydronaphthalen-2-amine hydrochloride]
Ki (Aminopeptidase N): 80 µM | IC50 ([1]; pH 8, 30 °C): 130 µM | Ki [2]: 30 µM

NC1Cc2ccccc2C/C1=N/OCc1ccccc1 (stereo not given) [(3Z)-3-[(benzyloxy)imino]-1,2,3,4-tetrahydronaphthalen-2-amine hydrochloride]
IC50 (Aminopeptidase N): 790 µM | IC50 ([1]; pH 8, 30 °C): 210 µM | IC50 [2]: > 1000 µM

O=C1CCc2ccccc2C1 [1,2,3,4-tetrahydronaphthalen-2-one]
IC50 (Aminopeptidase N): > 1000 µM | IC50 [1]: > 1000 µM | IC50 [2]: > 1000 µM

NC1Cc2ccccc2CC1P(=O)(O)O (stereo not given) [3-amino-1,2,3,4-tetrahydronaphthalene-2-phosphonic acid hydrochloride]
IC50 (Aminopeptidase N): 500 µM | IC50 [1]: 150 µM | IC50 [2]: > 1000 µM

NC1Cc2ccccc2C/C1=N/OCCCc1ccccc1 (stereo not given) [(3Z)-3-[(3-phenylpropoxy)imino]-1,2,3,4-tetrahydronaphthalen-2-amine hydrochloride]
Ki (Aminopeptidase N): 110 µM | IC50 ([1]; pH 8, 30 °C): 300 µM | Ki [2]: 6 µM

NC1Cc2ccccc2C/C1=N/OCCCCc1ccccc1 (stereo not given) [(3Z)-3-[(4-phenylbutoxy)imino]-1,2,3,4-tetrahydronaphthalen-2-amine hydrochloride]
Ki (Aminopeptidase N): 55 µM | IC50 ([1]; pH 8, 30 °C): 110 µM | Ki [2]: 8 µM
